Experimental data published in ChEMBL document CHEMBL4346657, “Anticancer activity, dual prooxidant/antioxidant effect and apoptosis induction profile of new bichalcophene-5-carboxamidines” (Eur J Med Chem, 2019).
Activity calls are given as the source filed them. No cut-off for these calls is given here.

How the values were obtained:
UO-31 = assay: Antiproliferative activity against human UO31 cells assessed as growth inhibition after 48 hrs by sulforhodamine B assay; assay type: functional; details: UO-31, 48 h
[1] = system: Panel NCI-60 (60 carcinoma cell lines); assay: Antiproliferative activity against human NCI60 cells assessed as growth inhibition after 48 hrs by sulforhodamine B assay; assay type: functional
[2] = Selectivity index, ratio of IC50 for human WI38 cells to GI50 for human NCI60 cells
PC-3 = assay: Antiproliferative activity against human PC3 cells assessed as growth inhibition after 48 hrs by sulforhodamine B assay; assay type: functional; details: PC-3, 48 h
OVCAR-3 = assay: Antiproliferative activity against human OVCAR3 cells assessed as growth inhibition after 48 hrs by sulforhodamine B assay; assay type: functional; details: OVCAR-3, 48 h
DU-145 = assay: Antiproliferative activity against human DU145 cells assessed as growth inhibition after 48 hrs by sulforhodamine B assay; assay type: functional; details: DU-145, 48 h
SN12C = assay: Antiproliferative activity against human SN12C cells assessed as growth inhibition after 48 hrs by sulforhodamine B assay; assay type: functional
RXF 393 = assay: Antiproliferative activity against human RXF393 cells assessed as growth inhibition after 48 hrs by sulforhodamine B assay; assay type: functional; details: RXF 393, 48 h
CAKI-1 = assay: Antiproliferative activity against human CAKI-1 cells assessed as growth inhibition after 48 hrs by sulforhodamine B assay; assay type: functional; details: CAKI-1, 48 h
ACHN = assay: Antiproliferative activity against human ACHN cells assessed as growth inhibition after 48 hrs by sulforhodamine B assay; assay type: functional
A498 = assay: Antiproliferative activity against human A498 cells assessed as growth inhibition after 48 hrs by sulforhodamine B assay; assay type: functional; details: A498, 48 h
SK-OV-3 = assay: Antiproliferative activity against human SKOV3 cells assessed as growth inhibition after 48 hrs by sulforhodamine B assay; assay type: functional; details: SK-OV-3, 48 h
OVCAR-8 = assay: Antiproliferative activity against human OVCAR8 cells assessed as growth inhibition after 48 hrs by sulforhodamine B assay; assay type: functional; details: OVCAR-8, 48 h
OVCAR-5 = assay: Antiproliferative activity against human OVCAR5 cells assessed as growth inhibition after 48 hrs by sulforhodamine B assay; assay type: functional; details: OVCAR-5, 48 h
UACC-62 = assay: Antiproliferative activity against human UACC62 cells assessed as growth inhibition after 48 hrs by sulforhodamine B assay; assay type: functional; details: UACC-62, 48 h
M14 = assay: Antiproliferative activity against human M14 cells assessed as growth inhibition after 48 hrs by sulforhodamine B assay; assay type: functional; details: M14, 48 h
LOX IMVI = assay: Antiproliferative activity against human LOXIMVI cells assessed as growth inhibition after 48 hrs by sulforhodamine B assay; assay type: functional
SF-295 = assay: Antiproliferative activity against human SF295 cells assessed as growth inhibition after 48 hrs by sulforhodamine B assay; assay type: functional; details: SF-295, 48 h
SF-268 = assay: Antiproliferative activity against human SF268 cells assessed as growth inhibition after 48 hrs by sulforhodamine B assay; assay type: functional; details: SF-268, 48 h
KM12 = assay: Antiproliferative activity against human KM12 cells assessed as growth inhibition after 48 hrs by sulforhodamine B assay; assay type: functional; details: KM12, 48 h
HT-29 = assay: Antiproliferative activity against human HT-29 cells assessed as growth inhibition after 48 hrs by sulforhodamine B assay; assay type: functional; details: HT-29, 48 h
HCT-15 = assay: Antiproliferative activity against human HCT15 cells assessed as growth inhibition after 48 hrs by sulforhodamine B assay; assay type: functional; details: HCT-15, 48 h
NCI-H460 = assay: Antiproliferative activity against human NCI-H460 cells assessed as growth inhibition after 48 hrs by sulforhodamine B assay; assay type: functional; details: NCI-H460, 48 h
NCI-H23 = assay: Antiproliferative activity against human NCI-H23 cells assessed as growth inhibition after 48 hrs by sulforhodamine B assay; assay type: functional; details: NCI-H23, 48 h
HOP-62 = assay: Antiproliferative activity against human HOP62 cells assessed as growth inhibition after 48 hrs by sulforhodamine B assay; assay type: functional; details: HOP-62, 48 h
EKVX = assay: Antiproliferative activity against human EKVX cells assessed as growth inhibition after 48 hrs by sulforhodamine B assay; assay type: functional
SR = assay: Antiproliferative activity against human SR cells assessed as growth inhibition after 48 hrs by sulforhodamine B assay; assay type: functional
HL-60(TB) = assay: Antiproliferative activity against human HL-60(TB) cells assessed as growth inhibition after 48 hrs by sulforhodamine B assay; assay type: functional; details: HL-60, 48 h
T47D = assay: Antiproliferative activity against human T47D cells assessed as growth inhibition after 48 hrs by sulforhodamine B assay; assay type: functional
Erythrocyte = assay: Haemolytic activity in human erythrocytes assessed as induction of hemolysis at 2.5 mM after 30 mins relative to H202; assay type: cell-based; details: erythrocyte, 0.5 h, 2500 µM
[3] = Antioxidant activity assessed as DPPH radical scavenging activity incubated in dark for 30 mins by spectrophotometric method relative to ascorbic acid; assay type: functional
[4] = Antioxidant activity assessed as ABTS radical scavenging activity by spectrophotometric analysis relative to control; assay type: functional; design: concentration or dose not given beside the values; details: dose or concentration not given here
[5] = Antioxidant activity assessed as hydroxyl radical scavenging activity after 1 hr by salicylic acid-based Fenton reaction assay; assay type: functional
HCT-116 [6] = assay: Induction of apoptosis in human HCT116 cells assessed as increase in caspase 3 mRNA expression at 100 nM after 6 hrs hrs by SYBR green dye-based qRT-PCR analysis relative to control; assay type: functional
HCT-116 [7] = assay: Induction of apoptosis in human HCT116 cells assessed as increase in caspase 9 mRNA expression at 100 nM after 6 hrs hrs by SYBR green dye-based qRT-PCR analysis relative to control; assay type: functional
HCT-116 [8] = assay: Induction of apoptosis in human HCT116 cells assessed as increase in p53 mRNA expression at 100 nM after 6 hrs hrs by SYBR green dye-based qRT-PCR analysis relative to control; assay type: functional
HCT-116 [9] = assay: Reduction in CDK1 mRNA expression in human HCT116 cells at 100 nM after 6 hrs hrs by SYBR green dye-based qRT-PCR analysis relative to control; assay type: functional; details: HCT-116, 6 h

Row | SMILES | GI50 (UO-31) [nM] | GI50 [1] [nM] | LC50 [1] [nM] | TGI [1] [nM] | Selectivity Index [2] | GI50 (PC-3) [nM] | GI50 (OVCAR-3) [nM] | GI50 (DU-145) [nM] | GI50 (SN12C) [nM] | GI50 (RXF 393) [nM] | GI50 (CAKI-1) [nM] | GI50 (ACHN) [nM] | GI50 (A498) [nM] | GI50 (SK-OV-3) [nM] | GI50 (OVCAR-8) [nM] | GI50 (OVCAR-5) [nM] | GI50 (UACC-62) [nM] | GI50 (M14) [nM] | GI50 (LOX IMVI) [nM] | GI50 (SF-295) [nM] | other results
1 | N=C(N)c1ccc(-c2ccc(-c3ccc4ccccc4c3)s2)s1 | 1960 | 2390 | 30200 | 6020 | 34 | 2190 | 1890 | 1830 | 1870 | 1930 | 3110 | 2530 | 1700 | 20200 | 2270 | 1810 | 2100 | 2450 | 1710 | 2270 | GI50 (SF-268): 2250 nM; GI50 (KM12): 1920 nM; GI50 (HT-29): 1710 nM; GI50 (HCT-15): 1690 nM; GI50 (NCI-H460): 1950 nM; GI50 (NCI-H23): 2950 nM; GI50 (HOP-62): 2080 nM; GI50 (EKVX): 2460 nM; GI50 (SR): 1050 nM; GI50 (HL-60(TB)): 1810 nM; GI50 (T47D): 1950 nM; Activity (Erythrocyte): Non-Toxic; fold change (FC) [3]: 0.6; inhibition [4]: 72.8%; Activity [5]: Active; fold change (FC) (HCT-116 [6]): 2.59; fold change (FC) (HCT-116 [7]): 2.33; fold change (FC) (HCT-116 [8]): 1
2 | N=C(N)c1ccc(-c2ccc(-c3cc(Cl)cc(Cl)c3)s2)s1 | 1740 | 1940 | 75800 | 4460 | 50.9 | 1880 | 1810 | 1820 | 2020 | 1850 | 1720 | 1750 | 1530 | 3620 | 2390 | 1960 | 1920 | 2020 | 1690 | 1960 | GI50 (SF-268): 1960 nM; GI50 (KM12): 1750 nM; GI50 (HT-29): 1650 nM; GI50 (HCT-15): 1620 nM; GI50 (NCI-H460): 2050 nM; GI50 (NCI-H23): 1990 nM; GI50 (HOP-62): 1760 nM; GI50 (EKVX): 1750 nM; GI50 (SR): 1060 nM; GI50 (HL-60(TB)): 1660 nM; GI50 (T47D): 1800 nM; Activity (Erythrocyte): Non-Toxic; fold change (FC) [3]: 0.3; inhibition [4]: 36.2%; Activity [5]: Active; fold change (FC) (HCT-116 [6]): 1.61; fold change (FC) (HCT-116 [7]): 1.54; fold change (FC) (HCT-116 [8]): 3.98; inhibition at 0.1 µM (HCT-116 [9]): 79%
3 | COc1cc(OC)cc(-c2ccc(-c3ccc(C(=N)N)o3)o2)c1 | 2670 | 3020 | 22900 | 8120 | 27 | 4770 | 3260 | 4280 | 2380 | 1930 | 4330 | 2050 | 2890 | 14900 | 3750 | 2340 | 1980 | 2070 | 1790 | 2080 | GI50 (SF-268): 3400 nM; GI50 (KM12): 2450 nM; GI50 (HT-29): 2770 nM; GI50 (HCT-15): 3180 nM; GI50 (NCI-H460): 2320 nM; GI50 (NCI-H23): 9250 nM; GI50 (HOP-62): 5650 nM; GI50 (EKVX): 5090 nM; GI50 (SR): 1880 nM; GI50 (HL-60(TB)): 1900 nM; GI50 (T47D): 2080 nM; Activity (Erythrocyte): Non-Toxic; fold change (FC) [3]: 0.3; inhibition [4]: 36%; Activity [5]: Active; fold change (FC) (HCT-116 [6]): 4.1; fold change (FC) (HCT-116 [7]): 1.03; fold change (FC) (HCT-116 [8]): 0.9
